Experimental data published in ChEMBL document CHEMBL6127068, “Discovery of novel nitrofuran PROTAC-like compounds as dual inhibitors and degraders targeting STING” (Eur J Med Chem, 2024).
The source made the active and inactive calls. No cut-off for these calls is given here.

Columns and labels:
[1] = molecular target: T1, Protein cereblon/Stimulator of interferon genes protein (Homo sapiens, UniProt Q96SW2+Q86WV6); test: PROTAC activity at CRBN/STING in human THP-1 cells assessed as induction of STING degradation incubated for 24 hrs by western blot analysis; assay type: cell-based
Target sequence in this assay (Q96SW2 whole entry): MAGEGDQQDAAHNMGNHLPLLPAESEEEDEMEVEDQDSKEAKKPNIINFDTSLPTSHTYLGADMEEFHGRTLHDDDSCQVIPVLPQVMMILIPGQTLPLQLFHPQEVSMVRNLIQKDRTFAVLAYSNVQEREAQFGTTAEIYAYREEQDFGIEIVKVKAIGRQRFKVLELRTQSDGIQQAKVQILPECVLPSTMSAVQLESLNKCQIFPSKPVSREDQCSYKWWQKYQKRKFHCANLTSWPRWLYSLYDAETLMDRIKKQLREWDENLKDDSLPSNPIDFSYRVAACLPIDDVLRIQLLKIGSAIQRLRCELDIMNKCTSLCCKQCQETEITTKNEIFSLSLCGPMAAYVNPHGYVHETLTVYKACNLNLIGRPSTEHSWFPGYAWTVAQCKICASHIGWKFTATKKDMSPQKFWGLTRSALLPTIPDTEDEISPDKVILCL
Target sequence in this assay (Q86WV6 whole entry): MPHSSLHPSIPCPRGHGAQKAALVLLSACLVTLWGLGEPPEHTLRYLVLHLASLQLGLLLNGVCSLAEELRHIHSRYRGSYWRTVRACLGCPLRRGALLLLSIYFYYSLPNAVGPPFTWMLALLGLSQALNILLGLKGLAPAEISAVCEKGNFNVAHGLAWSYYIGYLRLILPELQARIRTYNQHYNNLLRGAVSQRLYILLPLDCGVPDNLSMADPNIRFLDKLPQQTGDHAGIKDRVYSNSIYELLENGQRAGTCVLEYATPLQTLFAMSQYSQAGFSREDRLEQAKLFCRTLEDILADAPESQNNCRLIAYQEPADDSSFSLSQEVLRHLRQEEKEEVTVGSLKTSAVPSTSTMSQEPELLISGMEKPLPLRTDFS

THP-1 [2] = test: Effect on STING mRNA expression in human THP-1 cells at 10 uM incubated for 12 to 48 hrs by qRT-PCR analysis; assay type: functional, cell-based; settings: time 12-48 hrs
[3] = molecular target: T1, Protein cereblon/Stimulator of interferon genes protein; test: PROTAC activity at CRBN/STING in human THP-1 cells assessed as induction of STING degradation at 3 uM pretreated with proteasome inhibitor, MG132 for 1 hr followed by incubation with compound for 24 hrs by western blot analysis; assay type: cell-based
Target sequence in this assay (Q86WV6 whole entry, looked up): as the sequence (Q86WV6 whole entry) above
Target sequence in this assay (Q96SW2 whole entry, looked up): as the sequence (Q96SW2 whole entry) above

[4] = molecular target: T1, Protein cereblon/Stimulator of interferon genes protein; test: PROTAC activity at CRBN/STING in human THP-1 cells assessed as induction of STING degradation at 10 uM incubated for 24 hrs followed by replacement with fresh medium without compound and measured after 24 hrs by western bot analysis; assay type: cell-based
Target sequence in this assay (Q86WV6 whole entry, looked up): as the sequence (Q86WV6 whole entry) above
Target sequence in this assay (Q96SW2 whole entry, looked up): as the sequence (Q96SW2 whole entry) above

[5] = molecular target: T1, Protein cereblon/Stimulator of interferon genes protein; test: PROTAC activity at CRBN/STING in human THP-1 cells assessed as inhibition of cGAMP-induced IRF3 phosphorylation incubated for 24 hrs followed by stimulation with cGAMP for 24 hrs by western blot analysis; assay type: cell-based; settings: dose 0.3-20 µM, time 48.0 hrs
Target sequence in this assay (Q86WV6 whole entry, looked up): as the sequence (Q86WV6 whole entry) above
Target sequence in this assay (Q96SW2 whole entry, looked up): as the sequence (Q96SW2 whole entry) above

[6] = molecular target: T1, Protein cereblon/Stimulator of interferon genes protein; test: PROTAC activity at CRBN/STING in human THP-1 cells assessed as inhibition of cGAMP-induced IFN-beta mRNA expression incubated for 1 hr followed by stimulation with cGAMP for 24 hrs by qRT-PCR analysis; assay type: cell-based; settings: dose 5-20 µM, time 25.0 hrs
Target sequence in this assay (Q86WV6 whole entry, looked up): as the sequence (Q86WV6 whole entry) above
Target sequence in this assay (Q96SW2 whole entry, looked up): as the sequence (Q96SW2 whole entry) above

[7] = molecular target: T1, Protein cereblon/Stimulator of interferon genes protein; test: PROTAC activity at CRBN/STING in human THP-1 cells assessed as inhibition of cGAMP-induced CXCL10 mRNA expression incubated for 1 hr followed by stimulation with cGAMP for 24 hrs by qRT-PCR analysis; assay type: cell-based; settings: dose 5-20 µM, time 25.0 hrs
Target sequence in this assay (Q86WV6 whole entry, looked up): as the sequence (Q86WV6 whole entry) above
Target sequence in this assay (Q96SW2 whole entry, looked up): as the sequence (Q96SW2 whole entry) above

[8] = molecular target: T1, Protein cereblon/Stimulator of interferon genes protein; test: PROTAC activity at CRBN/STING in human THP-1 cells assessed as inhibition of cGAMP-induced ISG15 mRNA expression incubated for 1 hr followed by stimulation with cGAMP for 24 hrs by qRT-PCR analysis; assay type: cell-based; settings: dose 5-20 µM, time 25.0 hrs
Target sequence in this assay (Q86WV6 whole entry, looked up): as the sequence (Q86WV6 whole entry) above
Target sequence in this assay (Q96SW2 whole entry, looked up): as the sequence (Q96SW2 whole entry) above

[9] = molecular target: T1, Protein cereblon/Stimulator of interferon genes protein; test: PROTAC activity at CRBN/STING in human THP-1 cells assessed as inhibition of cGAMP-induced ISG56 mRNA expression incubated for 1 hr followed by stimulation with cGAMP for 24 hrs by qRT-PCR analysis; assay type: cell-based; settings: dose 5-20 µM, time 25.0 hrs
[10] = molecular target: T2, Stimulator of interferon genes protein (Mus musculus) (UniProt Q3TBT3); test: Inhibition of STING in mouse RAW264.7 cells assessed as reduction in SR717-induced IRF3 phosphorylation at 0.3 to 20 uM pretreated for 1 hr followed by stimulation with SR717 for 24 hrs by western blot analysis; assay type: cell-based; settings: dose 0.3-20 µM, time 25.0 hrs
T2 sequence (whole entry): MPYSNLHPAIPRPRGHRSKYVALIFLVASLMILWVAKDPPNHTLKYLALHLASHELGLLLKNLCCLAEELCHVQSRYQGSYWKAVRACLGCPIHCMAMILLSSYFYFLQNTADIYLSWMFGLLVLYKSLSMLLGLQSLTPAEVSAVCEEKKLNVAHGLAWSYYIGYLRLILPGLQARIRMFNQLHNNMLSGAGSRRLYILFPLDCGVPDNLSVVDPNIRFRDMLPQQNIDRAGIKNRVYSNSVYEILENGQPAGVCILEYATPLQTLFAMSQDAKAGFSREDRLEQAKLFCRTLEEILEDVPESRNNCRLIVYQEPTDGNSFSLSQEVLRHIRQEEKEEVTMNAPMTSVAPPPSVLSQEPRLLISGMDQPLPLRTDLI

[11] = molecular target: T2, Stimulator of interferon genes protein (Mus musculus); test: Inhibition of STING in mouse RAW264.7 cells assessed as reduction in DMXAA-induced IFN-beta mRNA expression at 5 to 20 uM pretreated for 1 hr followed by stimulation with DMXAA for 24 hrs by qRT-CPR analysis; assay type: cell-based; settings: dose 5-20 µM, time 25.0 hrs
[12] = molecular target: T2, Stimulator of interferon genes protein (Mus musculus); test: Inhibition of STING in mouse RAW264.7 cells assessed as reduction in DMXAA-induced CXCL10 mRNA expression at 5 to 20 uM pretreated for 1 hr followed by stimulation with DMXAA for 24 hrs by qRT-CPR analysis; assay type: cell-based; settings: dose 5-20 µM, time 25.0 hrs
[13] = molecular target: T2, Stimulator of interferon genes protein (Mus musculus); test: Inhibition of STING in mouse RAW264.7 cells assessed as reduction in DMXAA-induced TNF-alpha mRNA expression at 5 to 20 uM pretreated for 1 hr followed by stimulation with DMXAA for 24 hrs by qRT-CPR analysis; assay type: cell-based; settings: dose 5-20 µM, time 25.0 hrs
[14] = molecular target: Protein cereblon/Signal transducer and activator of transcription 3 (Homo sapiens) (UniProt P40763+Q96SW2); test: PROTAC activity at CRBN/STAT3 in human THP-1 cells assessed as induction of STAT3 degradation at 2.5 to 40 uM incubated for 24 hrs by western blot analysis; assay type: cell-based; settings: dose 2.5-40 µM
THP-1 [15] = test: PROTAC activity at CRBN/Akt in human THP-1 cells assessed as induction of Akt degradation at 2.5 to 40 uM incubated for 24 hrs by western blot analysis; assay type: cell-based; settings: dose 2.5-40 µM
[16] = Stability of the compound in human plasma assessed as parent compound remaining at 400 ug/ml measured after 24 hrs by HPLC analysis; assay type: ADME, cell-free; settings: at 400 µg/mL, read-out: Stability
[17] = Toxicity against cisplatin-induced acute kidney injury C57BL/6J mouse model assessed as decrease in body weight at 25 to 50 mg/kg; assay type: organism-based; settings: in vivo, dose 25-50 mg/kg
Mus musculus [18] = test: Anti-inflammatory activity against C57BL/6J mouse assessed as inhibition of cisplatin-induced hepatic impairment by measuring restoration of ALT activity at 25 to 50 mg/kg; assay type: functional, organism-based; settings: dose 25-50 mg/kg
Mus musculus [19] = test: Anti-inflammatory activity against C57BL/6J mouse assessed as inhibition of cisplatin-induced hepatic impairment by measuring restoration of gamma-GT activity at 25 to 50 mg/kg; assay type: functional, organism-based; settings: dose 25-50 mg/kg
[20] = molecular target: T3, Protein cereblon/Stimulator of interferon genes protein (Mus musculus) (UniProt Q3TBT3+Q8C7D2); test: In vivo inhibition of STING signaling pathway in C57BL/6J mouse assessed as inhibition of cisplatin-induced IFN-beta mRNA expression in kidney at 25 to 50 mg/kg by qPCR analysis; assay type: functional, organism-based; settings: dose 25-50 mg/kg
[21] = molecular target: T3, Protein cereblon/Stimulator of interferon genes protein (Mus musculus); test: In vivo inhibition of STING signaling pathway in C57BL/6J mouse assessed as inhibition of cisplatin-induced CXCL10 mRNA expression in kidney at 25 to 50 mg/kg by qPCR analysis; assay type: functional, organism-based; settings: dose 25-50 mg/kg
[22] = molecular target: T3, Protein cereblon/Stimulator of interferon genes protein (Mus musculus); test: In vivo inhibition of STING signaling pathway in C57BL/6J mouse assessed as inhibition of cisplatin-induced TNF-alpha mRNA expression in kidney at 25 to 50 mg/kg by qPCR analysis; assay type: functional, organism-based; settings: dose 25-50 mg/kg
[23] = molecular target: T3, Protein cereblon/Stimulator of interferon genes protein (Mus musculus); test: In vivo inhibition of STING signaling pathway in C57BL/6J mouse assessed as inhibition of cisplatin-induced ISG15 mRNA expression in kidney at 25 to 50 mg/kg by qPCR analysis; assay type: functional, organism-based; settings: dose 25-50 mg/kg
[24] = Toxicity against cisplatin-induced acute kidney injury C57BL/6J mouse model assessed as effect on liver morphology at 25 to 50 mg/kg by Hematoxylin-Eosin staining based microscopic analysis; assay type: organism-based; settings: in vivo, dose 25-50 mg/kg

T3 sequence (Q8C7D2 whole entry, looked up, one chain of several): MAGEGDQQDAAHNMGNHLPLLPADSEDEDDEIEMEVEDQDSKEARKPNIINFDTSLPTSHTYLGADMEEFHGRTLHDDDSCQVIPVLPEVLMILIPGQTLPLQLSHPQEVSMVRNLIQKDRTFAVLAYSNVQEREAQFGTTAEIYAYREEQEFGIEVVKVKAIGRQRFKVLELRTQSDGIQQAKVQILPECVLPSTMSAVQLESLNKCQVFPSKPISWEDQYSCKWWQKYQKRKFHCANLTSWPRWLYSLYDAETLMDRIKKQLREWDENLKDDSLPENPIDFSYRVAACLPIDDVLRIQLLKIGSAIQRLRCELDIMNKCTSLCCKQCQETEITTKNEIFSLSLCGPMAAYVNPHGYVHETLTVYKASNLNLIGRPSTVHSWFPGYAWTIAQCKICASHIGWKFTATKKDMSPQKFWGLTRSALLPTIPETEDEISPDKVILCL
Chain of Protein cereblon/Signal transducer and activator of transcription 3 (Homo sapiens) (P40763 2-770 limits assumed): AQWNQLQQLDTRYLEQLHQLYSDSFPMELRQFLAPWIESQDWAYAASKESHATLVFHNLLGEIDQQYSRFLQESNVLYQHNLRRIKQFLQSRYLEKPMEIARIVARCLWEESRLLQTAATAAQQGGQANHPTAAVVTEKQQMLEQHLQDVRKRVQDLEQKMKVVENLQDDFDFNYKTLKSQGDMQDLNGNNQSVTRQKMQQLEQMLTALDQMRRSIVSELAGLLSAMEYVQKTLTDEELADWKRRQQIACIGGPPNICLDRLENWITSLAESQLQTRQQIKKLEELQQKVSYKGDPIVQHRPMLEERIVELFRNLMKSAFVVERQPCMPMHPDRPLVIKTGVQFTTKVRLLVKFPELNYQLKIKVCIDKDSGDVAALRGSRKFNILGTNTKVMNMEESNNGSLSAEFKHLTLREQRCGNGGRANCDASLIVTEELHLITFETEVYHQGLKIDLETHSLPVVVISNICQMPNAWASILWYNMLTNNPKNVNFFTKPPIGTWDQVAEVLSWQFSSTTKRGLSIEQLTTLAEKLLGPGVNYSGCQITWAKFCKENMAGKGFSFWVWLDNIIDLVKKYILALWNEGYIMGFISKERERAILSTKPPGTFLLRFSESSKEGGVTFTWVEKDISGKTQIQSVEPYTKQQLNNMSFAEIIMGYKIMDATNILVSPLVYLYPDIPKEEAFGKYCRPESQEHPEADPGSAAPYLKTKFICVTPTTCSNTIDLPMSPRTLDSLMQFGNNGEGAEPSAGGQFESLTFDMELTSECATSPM
Chain of Protein cereblon/Signal transducer and activator of transcription 3 (Homo sapiens) (Q96SW2 whole entry partner): as the sequence (Q96SW2 whole entry) above

**Q.** Which DC50 [1] does the source give for O=C1CCC(N2C(=O)c3cccc(OCc4cn(CCCCCC(=O)OCCc5ccc(NC(=O)c6ccc([N+](=O)[O-])o6)cc5)nn4)c3C2=O)C(=O)N1 (centres undefined) here?
**A.** 2.58 µM

**Q.** What about the Activity (THP-1 [2]) of the same molecule?
**A.** inactive

**Q.** What about the Activity [3] of the same molecule?
**A.** Active

**Q.** What about the Activity [4] of the same molecule?
**A.** inactive

**Q.** And the Activity [5]?
**A.** Dose-Dependent Effect

**Q.** And the Activity [6]?
**A.** Dose-Dependent Effect

**Q.** What about the Activity [7] of the same molecule?
**A.** Dose-Dependent Effect

**Q.** What about the Activity [8] of the same molecule?
**A.** Dose-Dependent Effect

**Q.** What about the Activity [9] of the same molecule?
**A.** Dose-Dependent Effect

**Q.** What about the inhibition [10] of the same molecule?
**A.** Dose-Dependent Effect

**Q.** What about the inhibition [11] of the same molecule?
**A.** Dose-Dependent Effect

**Q.** And the inhibition [12]?
**A.** Dose-Dependent Effect

**Q.** And the inhibition [13]?
**A.** Dose-Dependent Effect

**Q.** And the Activity [14]?
**A.** inactive

**Q.** What about the Activity (THP-1 [15]) of the same molecule?
**A.** inactive

**Q.** And the remaining at 24 h, 400 ug/ml [16]?
**A.** ~66%

**Q.** What about the Activity [17] of the same molecule?
**A.** Toxic

**Q.** What about the Activity (Mus musculus [18]) of the same molecule?
**A.** Active

**Q.** And the Activity (Mus musculus [19])?
**A.** Active

**Q.** And the inhibition [20]?
**A.** Active

**Q.** And the inhibition [21]?
**A.** Active

**Q.** What about the inhibition [22] of the same molecule?
**A.** Active

**Q.** And the inhibition [23]?
**A.** Active

**Q.** And the Activity [24]?
**A.** Non-Toxic
